ChEMBL document CHEMBL1145727, “Improvement of biological activity and proteolytic stability of peptides by coupling with a cyclic peptide” (Bioorg Med Chem Lett, 2003)
Bridge positions count the residues as written; N and C are the ends. Peptide text beside a SMILES is read from it.

How the values were obtained:
Integrin alpha-5/beta-1 = Integrin alpha-5/beta-1 (Homo sapiens, UniProt P05556+P08648); assay: Inhibition of mouse melanoma B16-F10 cell adhesion to fibronectin; type: functional, cell-based
Integrin alpha-5/beta-1, sequence (P05556 21-798 limits assumed): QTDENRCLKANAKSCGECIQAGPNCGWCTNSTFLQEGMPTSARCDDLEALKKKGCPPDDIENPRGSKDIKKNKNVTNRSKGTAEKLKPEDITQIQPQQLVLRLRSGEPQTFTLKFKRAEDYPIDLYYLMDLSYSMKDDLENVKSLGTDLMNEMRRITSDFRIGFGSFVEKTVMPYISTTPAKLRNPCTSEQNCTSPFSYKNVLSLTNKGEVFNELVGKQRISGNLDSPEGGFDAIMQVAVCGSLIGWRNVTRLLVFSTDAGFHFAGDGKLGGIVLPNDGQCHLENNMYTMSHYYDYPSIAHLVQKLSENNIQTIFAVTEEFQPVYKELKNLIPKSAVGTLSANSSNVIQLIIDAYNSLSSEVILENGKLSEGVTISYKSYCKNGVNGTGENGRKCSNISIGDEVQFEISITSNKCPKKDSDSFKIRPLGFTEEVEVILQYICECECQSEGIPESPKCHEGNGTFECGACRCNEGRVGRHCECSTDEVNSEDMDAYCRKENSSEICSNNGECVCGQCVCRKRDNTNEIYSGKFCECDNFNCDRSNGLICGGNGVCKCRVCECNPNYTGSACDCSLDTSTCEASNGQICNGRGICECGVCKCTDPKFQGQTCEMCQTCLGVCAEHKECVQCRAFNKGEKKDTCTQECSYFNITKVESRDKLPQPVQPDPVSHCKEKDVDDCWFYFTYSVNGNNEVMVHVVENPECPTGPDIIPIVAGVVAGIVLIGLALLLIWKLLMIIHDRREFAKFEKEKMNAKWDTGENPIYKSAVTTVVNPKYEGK
Integrin alpha-5/beta-1, sequence (P08648 42-894 limits assumed): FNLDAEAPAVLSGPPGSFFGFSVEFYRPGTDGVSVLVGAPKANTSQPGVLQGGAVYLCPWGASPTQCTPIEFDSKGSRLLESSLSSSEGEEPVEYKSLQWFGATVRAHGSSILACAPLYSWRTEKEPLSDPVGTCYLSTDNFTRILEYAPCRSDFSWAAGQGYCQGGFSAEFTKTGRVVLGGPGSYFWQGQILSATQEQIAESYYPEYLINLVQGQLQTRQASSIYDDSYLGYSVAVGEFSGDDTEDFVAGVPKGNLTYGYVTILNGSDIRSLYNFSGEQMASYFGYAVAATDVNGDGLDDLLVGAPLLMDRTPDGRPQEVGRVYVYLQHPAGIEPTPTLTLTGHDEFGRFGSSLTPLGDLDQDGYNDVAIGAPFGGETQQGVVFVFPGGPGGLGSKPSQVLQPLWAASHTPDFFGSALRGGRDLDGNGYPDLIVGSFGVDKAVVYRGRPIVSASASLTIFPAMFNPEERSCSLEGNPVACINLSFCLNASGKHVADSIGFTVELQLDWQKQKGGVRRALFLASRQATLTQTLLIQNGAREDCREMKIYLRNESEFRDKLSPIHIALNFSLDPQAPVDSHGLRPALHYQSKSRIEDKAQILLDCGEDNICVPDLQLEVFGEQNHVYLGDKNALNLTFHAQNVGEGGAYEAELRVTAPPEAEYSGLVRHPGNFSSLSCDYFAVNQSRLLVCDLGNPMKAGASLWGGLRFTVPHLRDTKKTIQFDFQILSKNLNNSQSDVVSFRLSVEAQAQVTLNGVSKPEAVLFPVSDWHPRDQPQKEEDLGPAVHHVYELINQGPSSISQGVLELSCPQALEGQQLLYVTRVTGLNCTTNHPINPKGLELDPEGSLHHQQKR
Integrin alpha-5/beta-1, sequence (P08648 895-1049 limits assumed): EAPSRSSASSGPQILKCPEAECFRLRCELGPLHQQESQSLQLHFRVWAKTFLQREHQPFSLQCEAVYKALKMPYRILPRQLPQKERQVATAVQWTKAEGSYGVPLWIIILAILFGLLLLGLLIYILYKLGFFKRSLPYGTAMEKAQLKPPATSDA

[1] = target: Protein farnesyltransferase (Homo sapiens, UniProt P49354+P49356); assay: Inhibition of Farnesyltransferase by Scintillation Proximity Assay; type: protein-complex assay
[2] = target: Protein farnesyltransferase (Bos taurus, UniProt P29702+P49355); assay: In vitro inhibition of farnesylation of v-Ki-Ras by bovine farnesyl transferase; type: protein-complex assay
[3] = target: T1, Integrin alpha-IIb/beta-3 (Homo sapiens) (UniProt P05106+P08514); assay: Inhibition of platelet aggregation at 0.3 mM in platelet-rich plasma (PRP) of citreated rabbit heart blood; type: functional; conditions: Oryctolagus cuniculus, target entry is the homologue from another species
[4] = target: T1, Integrin alpha-IIb/beta-3 (Homo sapiens); assay: Inhibition of platelet aggregation at 1 mM in platelet-rich plasma (PRP) of citreated rabbit heart blood; type: functional; conditions: Oryctolagus cuniculus, target entry is the homologue from another species
[5] = target: T1, Integrin alpha-IIb/beta-3 (Homo sapiens); assay: Inhibition of platelet aggregation at 0.1 mM in platelet-rich plasma (PRP) of citreated rabbit heart blood; type: functional; conditions: Oryctolagus cuniculus, target entry is the homologue from another species

H-VTGRGDSPA-OH [listing 1 of 2 here]
IC50 (Integrin alpha-5/beta-1): 1100 µM

CC(C)[C@H](NC(=O)[C@H](C)NC(=O)[C@H](Cc1ccc(O)cc1)NC(=O)[C@@H](NC(=O)[C@@H]1CC(=O)NCC(=O)N[C@@H](CC(N)=O)C(=O)N[C@@H](Cc2c[nH]c3ccccc23)C(=O)N[C@@H](Cc2cnc[nH]2)C(=O)NCC(=O)N[C@@H]([C@@H](C)O)C(=O)N[C@@H](C)C(=O)N2CCC[C@H]2C(=O)N1)C(C)C)C(=O)N[C@H](C(=O)NCC(=O)N[C@@H](CCCNC(=N)N)C(=O)NCC(=O)N[C@@H](CC(=O)O)C(=O)N[C@@H](CO)C(=O)N1CCC[C@H]1C(=O)N[C@@H](C)C(N)=O)[C@@H](C)O (GNWHGTAPDVYAVTGRGDSPA-NH2; lactam N-9)
IC50 (Integrin alpha-5/beta-1; b16-f10): 800 µM

CC(C)[C@H](NC(=O)[C@@H]1CC(=O)NCC(=O)N[C@@H](CC(N)=O)C(=O)N[C@@H](Cc2c[nH]c3ccccc23)C(=O)N[C@@H](Cc2cnc[nH]2)C(=O)NCC(=O)N[C@@H]([C@@H](C)O)C(=O)N[C@@H](C)C(=O)N2CCC[C@H]2C(=O)N1)C(=O)N[C@H](C(=O)NCC(=O)N[C@@H](CCCNC(=N)N)C(=O)NCC(=O)N[C@@H](CC(=O)O)C(=O)N[C@@H](CO)C(=O)N1CCC[C@H]1C(=O)N[C@@H](C)C(=O)O)[C@@H](C)O
IC50 (Integrin alpha-5/beta-1): 290 µM

CSCC[C@H](NC(=O)[C@@H](NC(=O)[C@@H](NC(=O)[C@H](CS)NC(=O)[C@H]1CCCN1C(=O)[C@H](CC(C)C)NC(=O)CNC(=O)[C@H](CCSC)NC(=O)[C@H](CO)N[C@H]1CC(=O)NCC(=O)N[C@H](CC(N)=O)C(=O)N[C@@H](Cc2c[nH]c3ccccc23)C(=O)N[C@H](Cc2c[nH]cn2)C(=O)NCC(=O)N[C@H]([C@@H](C)O)C(=O)N[C@@H](C)C(=O)N2CCC[C@@H]2C(=O)N1)C(C)C)C(C)C)C(=O)O
IC50 [1]: 0.42 µM | IC50 [2]: 560 µM

H-VYAVTGRGDSPA-NH2
IC50 (Integrin alpha-5/beta-1): 1000 µM

CC(C)[C@H](NC(=O)[C@H]1CC(=O)NCC(=O)N[C@H](CC(N)=O)C(=O)N[C@@H](Cc2c[nH]c3ccccc23)C(=O)N[C@H](Cc2c[nH]cn2)C(=O)NCC(=O)N[C@H]([C@@H](C)O)C(=O)N[C@@H](C)C(=O)N2CCC[C@@H]2C(=O)N1)C(=O)N[C@H](C(=O)NCC(=O)N[C@@H](CCCN=C(N)N)C(=O)NCC(=O)N[C@@H](CC(=O)O)C(=O)N[C@@H](CO)C(=O)N1CCC[C@@H]1C(=O)N[C@@H](C)C(=O)O)[C@@H](C)O
Inhibitory ratio [3]: 78.4% | Inhibitory ratio [4]: 92.1% | Inhibitory ratio [5]: 28.3%

CSCC[C@H](NC(=O)[C@@H](NC(=O)[C@@H](NC(=O)[C@H](CS)NC(=O)[C@@H]1CCCN1C(=O)[C@H](CC(C)C)NC(=O)CNC(=O)[C@H](CCSC)NC(=O)[C@@H](N)CO)C(C)C)C(C)C)C(=O)O
IC50 [1]: 1.2 µM

H-VTGRGDSPA-OH [listing 2 of 2 here]
Inhibitory ratio [3]: 20.3% | Inhibitory ratio [4]: 61.2%
